Converted amounts (≈) assume the structure as drawn. The source made the active and inactive calls. No cut-off for these calls is given here.
What was measured:
[1] = system: Salmonella typhimurium; test: Antimicrobial activity against Salmonella typhimurium MTCC 3732 after 12 hrs by well diffusion method; format: functional, Salmonella enterica subsp. enterica serovar Typhimurium; conditions: Salmonella enterica, MTCC 3732, 12 h
[2] = system: Pseudomonas aeruginosa; test: Antimicrobial activity against Pseudomonas aeruginosa MTCC 4673 after 12 hrs by well diffusion method; format: functional; conditions: MTCC 4673, 12 h
[3] = system: Mycolicibacterium smegmatis; test: Antimicrobial activity against Mycobacterium smegmatis MTCC 943 after 12 hrs by well diffusion method; format: functional; conditions: MTCC 943, 12 h
[4] = system: Staphylococcus aureus; test: Antimicrobial activity against Staphylococcus aureus MTCC 3160 after 12 hrs by well diffusion method; format: functional; conditions: MTCC 3160, 12 h
[5] = system: Salmonella typhimurium; test: Antimicrobial activity against Salmonella typhimurium MTCC 3732 at 100 ug/mL after 12 hrs by well diffusion method; format: functional, Salmonella enterica subsp. enterica serovar Typhimurium; conditions: for zone of inhibition at 100 µg/mL: Salmonella enterica, MTCC 3732, 12 h, read-out: DIZ
[6] = system: Salmonella typhimurium; test: Antimicrobial activity against Salmonella typhimurium MTCC 3732 at 50 ug/mL after 12 hrs by well diffusion method; format: functional, Salmonella enterica subsp. enterica serovar Typhimurium; conditions: for zone of inhibition at 50 µg/mL: Salmonella enterica, MTCC 3732, 12 h, read-out: DIZ
[7] = system: Pseudomonas aeruginosa; test: Antimicrobial activity against Pseudomonas aeruginosa MTCC 4673 at 100 ug/mL after 12 hrs by well diffusion method; format: functional; conditions: MTCC 4673, 12 h, read-out: DIZ
[8] = system: Pseudomonas aeruginosa; test: Antimicrobial activity against Pseudomonas aeruginosa MTCC 4673 at 50 ug/mL after 12 hrs by well diffusion method; format: functional; conditions: MTCC 4673, 12 h, read-out: DIZ
[9] = system: Mycolicibacterium smegmatis; test: Antimicrobial activity against Mycobacterium smegmatis MTCC 943 at 100 ug/mL after 12 hrs by well diffusion method; format: functional; conditions: for zone of inhibition at 100 µg/mL: MTCC 943, 12 h, read-out: DIZ
[10] = system: Mycolicibacterium smegmatis; test: Antimicrobial activity against Mycobacterium smegmatis MTCC 943 at 50 ug/mL after 12 hrs by well diffusion method; format: functional; conditions: MTCC 943, 12 h, read-out: DIZ
[11] = system: Staphylococcus aureus; test: Antimicrobial activity against Staphylococcus aureus MTCC 3160 at 100 ug/mL after 12 hrs by well diffusion method; format: functional; conditions: for zone of inhibition at 100 µg/mL: MTCC 3160, 12 h, read-out: DIZ
[12] = system: Staphylococcus aureus; test: microbe, parasite or virus in culture; conditions: MTCC 3160, 12 h, read-out: DIZ
Description: (§1) Antimicrobial activity against Staphylococcus aureus MTCC 3160 at 50 ug/mL after 12 hrs by well diffusion method

[13] = system: Candida albicans; test: Antimicrobial activity against Candida albicans MTCC 183 after 12 hrs by well diffusion method; format: functional; conditions: MTCC 183, 12 h
[14] = system: Penicillium chrysogenum; test: Antimicrobial activity against Penicillium chrysogenum MTCC 6795 at 50 to 100 ug/mL after 48 hrs by well diffusion method; format: functional, organism-based
[15] = system: Candida albicans; test: Antimicrobial activity against Candida albicans MTCC 183 at 100 ug/mL after 12 hrs by well diffusion method; format: functional
[16] = system: Candida albicans; test: Antimicrobial activity against Candida albicans MTCC 183 at 50 ug/mL after 12 hrs by well diffusion method; format: functional
[17] = system: Staphylococcus aureus; conditions: MTCC 3160, 50 ug/mL
Description: as §1

[18] = Salmonella enterica subsp. enterica serovar Typhimurium

Row | Structure (SMILES) | MIC [1] [mg/L] | MIC [2] [mg/L] | MIC [3] [mg/L] | MIC [4] [mg/L] | zone of inhibition at 100 µg/mL [5] [mm] | zone of inhibition at 50 µg/mL [6] [mm] | zone of inhibition at 100 µg/mL [7] [mm] | zone of inhibition at 50 µg/mL [8] [mm] | zone of inhibition at 100 µg/mL [9] [mm] | zone of inhibition at 50 µg/mL [10] [mm] | zone of inhibition at 100 µg/mL [11] [mm] | MIC [13] [mg/L] | Activity [14] | diameter of the inhibition zone (DIZ) [15] | diameter of the inhibition zone (DIZ) [16] | diameter of the inhibition zone (DIZ) [11] | DIZ [17] | also measured
1 | O=C(O)c1cn(C2CC2)c2cc(N3CCNCC3)c(F)cc2c1=O [CIPROFLOXACIN] | < 5 | < 5 | < 5 | < 5 | 37 | 37 | 30 | 26.6 | 30 | 29 | 13 | – | – | – | – | – | – | zone of inhibition at 50 µg/mL [12]: 13 mm
2 | C#CCn1cc(C(=O)NN)c(=O)c2ccc(C(F)(F)F)cc21 | 25 (≈ 80.8 µM) | 25 (≈ 80.8 µM) | 25 (≈ 80.8 µM) | 100 (≈ 323 µM) | 8 | 7.6 | 8 | 8 | 8 | 8 | – | > 100 | inactive | inactive | inactive | inactive | inactive | –
3 | CCOC(=O)c1cn(Cc2ccc(Cl)cc2Cl)c2c(C(F)(F)F)cccc2c1=O | > 100 | 50 (≈ 113 µM) | 50 (≈ 113 µM) | 100 (≈ 225 µM) | – | – | 7 | 7 | 8 | 7 | 9 | > 100 | inactive | inactive | inactive | – | inactive | diameter of the inhibition zone (DIZ) [5, 18]: inactive; diameter of the inhibition zone (DIZ) [6, 18]: inactive
4 | CCOC(=O)c1cn(Cc2ccc(C#N)cc2)c2cc(C(F)(F)F)ccc2c1=O | 50 (≈ 125 µM) | 25 (≈ 62.4 µM) | 50 (≈ 125 µM) | > 100 | 8 | 7.3 | 8 | 8 | – | 7 | – | > 100 | inactive | inactive | inactive | inactive | inactive | diameter of the inhibition zone (DIZ) [9]: inactive

Source: ChEMBL document CHEMBL2424533, “Design and regioselective synthesis of trifluoromethylquinolone derivatives as potent antimicrobial agents” (2013)
